# pIC50: −log10 of the molar value.
# What was measured:
# [1] = target: E. coli RNA polymerase σ70 holoenzyme (Escherichia coli, UniProt P0A8T7+P0A8V2); test: Fluorescence-detected RNA polymerase assay, E. coli RNA polymerase; assay type: biochemical; conditions: RiboGreen fluorescence, read-out: IC50 E. coli RNAP
# Method: Fluorescence-detected RNA polymerase assays with E. coli RNA polymerase were performed by a modification of the procedure of Kuhlman et al., 2004 [Kuhlman, P., Duff, H. & Galant, A. (2004) A fluorescence-based assay for multisubunit DNA-dependent RNA polymerases. Anal. Biochem. 324, 183-190]. Reaction mixtures contained (20 μl): 0-100 nM test compound, 75 nM E. coli RNA polymerase σ^70 holoenzyme, 20 nM 384 bp DNA fragment containing the bacteriophage T4 N25 promoter, 100 μM ATP, 100 μM GTP, 100 μM UTP, 100 μM CTP, 50 mM Tris-HCl, pH 8.0, 100 mM KCl, 10 mM MgCl2, 1 mM DTT, 10 μg/ml bovine serum albumin, and 5.5% glycerol. Reaction components other than DNA and NTPs were pre-incubated for 10 min at 37° C. Reactions were carried out by addition of DNA and incubation for 5 min at 37° C., followed by addition of NTPs and incubation for 60 min at 37° C. DNA was removed by addition of 1 μl 5 mM CaCl2 and 2 U DNaseI (Ambion, Inc.), followed by incubation for 90 min at 37° C. RNA was quantified by addition of 100 μl RiboGreen RNA Quantitation Reagent (Invitrogen, Inc.; 1:500 dilution in Tris-HCl, pH 8.0, 1 mM EDTA), followed by incubation for 10 min at 25° C., followed by measurement of fluorescence intensity [excitation wavelength=485 nm and emission wavelength=535 nm; QuantaMaster QM1 spectrofluorometer (PTI, Inc.)]. […]
# [2] = test system: Mycobacterium tuberculosis H37Rv; test: MIC, microplate Alamar Blue assay; assay type: cell-based
# Text: MICs for Mycobacterium tuberculosis were quantified using microplate Alamar Blue assays as described [Collins, L. & Franzblau, S. (1997) Microplate Alamar Blue assay versus BACTEC 460 system for high-throughput screening of compounds against Mycobacterium tuberculosis and Mycobacterium avium. Antimicrob. Agents Chemother. 41, 1004-1009].
# [3] = test system: Enterococcus faecalis ATCC 19433; test: MIC, spiral gradient endpoint assay; assay type: cell-based; conditions: ATCC19433, Mueller-Hinton II agar, 16 h at 37° C., read-out: MIC E. faecalis 19433
# Text: (§1) Minimum inhibitory concentrations (MICs) for Staphylococcus aureus ATCC 12600, Staphylococcus aureus ATCC 13709 MSSA, Staphylococcus aureus BAA-1707 MRSA (MW2), Staphylococcus aureus BAA-1717 MRSA (USA300), Enterococcus faecalis ATCC 19433, Enterococcus faecium ATCC19434, and Escherichia coli D21f2tolC were quantified using spiral gradient endpoint assays, essentially as described [Wallace, A. and Corkill, J. (1989) Application of the spiral plating method to study antimicrobial action. J. Microbiol. Meths. 10, 303-310; Paton, J., Holt, A., and Bywater, M. (1990) Measurement of MICs of antibacterial agents by spiral gradient endpoint compared with conventional dilution methods. Int. J. Exp. Gin. Chemother. 3, 31-38; Schalkowsky S. (1994) Measures of susceptibility from a spiral gradient of drug concentrations. Adv. Exp. Med. Biol. 349, 107-120]. Assays employed exponential-gradient plates containing 150 mm×4 mm Mueller-Hinton II cation-adjusted agar and 0.4-100 μg/ml of test compound. Plates were prepared using an Autoplate 4000 spiral plater (Spiral Biotech, Inc.). Saturated overnight cultures were swabbed radially onto plates, and plates were incubated for 16 h at 37° C. For each culture, the streak length was measured using a clear plastic template (Spiral Biotech, Inc.), the test-compound concentration at the streak endpoint was calculated using the program SGE (Spiral Biotech, Inc.), and the MIC was defined as the calculated test-compound concentration at the streak endpoint.
# [4] = test system: Enterococcus faecium ATCC19434; test: MIC, spiral gradient endpoint assay; assay type: cell-based; conditions: Mueller-Hinton II agar, 16 h at 37° C., read-out: MIC E. faecium 19434
# Text: as §1
# [5] = test system: Escherichia coli D21f2tolC; test: MIC, spiral gradient endpoint assay; assay type: cell-based; conditions: 16 h, read-out: MIC E. coli D21f2tolC
# Text: as §1
# [6] = test system: Staphylococcus aureus ATCC 12600; test: MIC, spiral gradient endpoint assay; assay type: cell-based; conditions: ATCC12600, Mueller-Hinton II agar, 16 h at 37° C., read-out: MIC S. aureus 12600
# Text: as §1
# [7] = test system: Staphylococcus aureus ATCC 13709 MSSA; test: MIC, spiral gradient endpoint assay; assay type: cell-based; conditions: Mueller-Hinton II agar, 16 h at 37° C., read-out: MIC S. aureus 13709
# Text: as §1
# [8] = test system: Staphylococcus aureus BAA-1707 MRSA (MW2); test: MIC, spiral gradient endpoint assay; assay type: cell-based; conditions: Mueller-Hinton II agar, 16 h at 37° C., read-out: MIC S. aureus MRSA 1707
# Text: as §1
# [9] = test system: Staphylococcus aureus BAA-1717 MRSA (USA300); test: MIC, spiral gradient endpoint assay; assay type: cell-based; conditions: Mueller-Hinton II agar, 16 h at 37° C., read-out: MIC S. aureus MRSA 1717
# Text: as §1
# Sequence of E. coli RNA polymerase σ70 holoenzyme (P0A8V2 whole entry, the tested form may be a part): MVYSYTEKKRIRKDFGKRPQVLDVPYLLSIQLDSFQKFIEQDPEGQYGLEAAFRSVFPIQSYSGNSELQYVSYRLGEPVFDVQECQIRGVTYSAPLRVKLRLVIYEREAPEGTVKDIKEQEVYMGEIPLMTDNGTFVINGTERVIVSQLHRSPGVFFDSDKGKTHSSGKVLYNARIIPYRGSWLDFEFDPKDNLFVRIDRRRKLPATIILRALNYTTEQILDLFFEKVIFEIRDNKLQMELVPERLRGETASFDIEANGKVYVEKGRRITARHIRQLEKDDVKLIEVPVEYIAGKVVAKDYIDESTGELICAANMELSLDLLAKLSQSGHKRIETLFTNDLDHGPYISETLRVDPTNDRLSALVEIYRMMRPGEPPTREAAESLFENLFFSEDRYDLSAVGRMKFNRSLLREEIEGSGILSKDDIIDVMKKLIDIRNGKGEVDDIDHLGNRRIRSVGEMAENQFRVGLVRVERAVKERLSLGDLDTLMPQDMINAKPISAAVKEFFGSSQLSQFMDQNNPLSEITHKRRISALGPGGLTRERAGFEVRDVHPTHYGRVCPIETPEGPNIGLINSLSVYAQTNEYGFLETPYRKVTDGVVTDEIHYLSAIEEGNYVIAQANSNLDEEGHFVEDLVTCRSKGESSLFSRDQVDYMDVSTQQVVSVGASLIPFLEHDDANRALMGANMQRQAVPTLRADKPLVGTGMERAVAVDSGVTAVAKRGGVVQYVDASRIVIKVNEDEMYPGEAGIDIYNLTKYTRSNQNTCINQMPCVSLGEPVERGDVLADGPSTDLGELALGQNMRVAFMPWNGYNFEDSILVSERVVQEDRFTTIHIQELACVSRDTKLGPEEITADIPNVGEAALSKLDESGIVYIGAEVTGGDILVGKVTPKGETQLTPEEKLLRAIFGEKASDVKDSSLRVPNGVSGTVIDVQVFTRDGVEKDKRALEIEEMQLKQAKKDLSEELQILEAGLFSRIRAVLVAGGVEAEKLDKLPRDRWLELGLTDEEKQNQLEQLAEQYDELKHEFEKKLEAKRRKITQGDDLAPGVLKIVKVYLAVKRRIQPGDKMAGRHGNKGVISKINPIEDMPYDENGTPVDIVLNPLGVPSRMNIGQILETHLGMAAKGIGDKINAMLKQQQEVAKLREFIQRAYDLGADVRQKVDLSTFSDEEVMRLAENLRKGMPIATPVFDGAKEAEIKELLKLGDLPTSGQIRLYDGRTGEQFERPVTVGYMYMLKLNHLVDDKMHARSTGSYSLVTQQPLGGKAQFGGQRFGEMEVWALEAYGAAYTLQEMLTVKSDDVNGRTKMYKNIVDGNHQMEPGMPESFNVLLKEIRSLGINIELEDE
# Sequence of E. coli RNA polymerase σ70 holoenzyme (P0A8T7 whole entry, the tested form may be a part): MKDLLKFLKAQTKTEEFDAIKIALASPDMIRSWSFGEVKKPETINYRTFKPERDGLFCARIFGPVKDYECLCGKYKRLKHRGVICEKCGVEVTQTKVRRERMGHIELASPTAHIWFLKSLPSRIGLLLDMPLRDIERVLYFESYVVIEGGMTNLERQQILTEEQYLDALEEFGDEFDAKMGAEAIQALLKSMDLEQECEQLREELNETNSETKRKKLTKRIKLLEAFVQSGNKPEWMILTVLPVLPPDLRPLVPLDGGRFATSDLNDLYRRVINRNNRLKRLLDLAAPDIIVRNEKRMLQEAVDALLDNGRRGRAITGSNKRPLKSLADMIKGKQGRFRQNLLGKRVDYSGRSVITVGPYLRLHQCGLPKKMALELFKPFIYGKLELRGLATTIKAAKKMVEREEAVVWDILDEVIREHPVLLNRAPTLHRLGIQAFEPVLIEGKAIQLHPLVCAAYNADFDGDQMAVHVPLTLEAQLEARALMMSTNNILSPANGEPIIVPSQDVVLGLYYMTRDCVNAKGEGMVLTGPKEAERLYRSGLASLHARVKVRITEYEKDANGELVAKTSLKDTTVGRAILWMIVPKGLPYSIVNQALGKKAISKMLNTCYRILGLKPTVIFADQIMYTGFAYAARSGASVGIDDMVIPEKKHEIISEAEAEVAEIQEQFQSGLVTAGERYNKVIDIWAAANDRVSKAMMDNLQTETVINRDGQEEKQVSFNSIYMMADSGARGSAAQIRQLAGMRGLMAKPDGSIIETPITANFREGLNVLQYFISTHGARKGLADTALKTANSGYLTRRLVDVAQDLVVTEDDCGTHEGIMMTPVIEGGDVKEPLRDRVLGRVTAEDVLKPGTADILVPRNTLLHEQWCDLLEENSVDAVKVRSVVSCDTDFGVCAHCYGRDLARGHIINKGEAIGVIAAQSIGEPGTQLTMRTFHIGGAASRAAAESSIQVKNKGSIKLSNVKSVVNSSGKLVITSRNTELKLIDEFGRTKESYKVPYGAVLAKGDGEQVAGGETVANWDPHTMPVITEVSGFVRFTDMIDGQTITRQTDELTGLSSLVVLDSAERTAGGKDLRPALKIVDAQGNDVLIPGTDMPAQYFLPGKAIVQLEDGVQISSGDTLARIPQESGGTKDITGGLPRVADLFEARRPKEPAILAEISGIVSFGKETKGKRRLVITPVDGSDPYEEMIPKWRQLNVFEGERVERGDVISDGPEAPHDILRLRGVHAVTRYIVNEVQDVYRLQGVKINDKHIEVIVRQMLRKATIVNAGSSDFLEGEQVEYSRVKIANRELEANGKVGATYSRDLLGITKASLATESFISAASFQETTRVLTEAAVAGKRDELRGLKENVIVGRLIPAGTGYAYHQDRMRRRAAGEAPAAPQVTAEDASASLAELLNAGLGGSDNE
# Sequence of E. coli RNA polymerase σ70 holoenzyme (P0A7Z4 whole entry partner, the tested form may be a part): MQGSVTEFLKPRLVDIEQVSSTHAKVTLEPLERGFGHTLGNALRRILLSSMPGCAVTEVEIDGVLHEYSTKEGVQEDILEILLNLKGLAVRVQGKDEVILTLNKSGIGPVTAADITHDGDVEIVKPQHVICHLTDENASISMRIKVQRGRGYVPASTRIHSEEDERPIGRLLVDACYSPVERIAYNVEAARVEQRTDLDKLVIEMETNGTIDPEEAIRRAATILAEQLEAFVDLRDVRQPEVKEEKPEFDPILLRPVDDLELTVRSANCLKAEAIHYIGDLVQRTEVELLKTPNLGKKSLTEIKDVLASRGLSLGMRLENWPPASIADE
# Sequence of E. coli RNA polymerase σ70 holoenzyme (P0A800 whole entry partner, the tested form may be a part): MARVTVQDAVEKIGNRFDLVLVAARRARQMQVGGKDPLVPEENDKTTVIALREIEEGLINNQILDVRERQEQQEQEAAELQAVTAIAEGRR
# Sequence of E. coli RNA polymerase σ70 holoenzyme (P00579 whole entry partner, the tested form may be a part): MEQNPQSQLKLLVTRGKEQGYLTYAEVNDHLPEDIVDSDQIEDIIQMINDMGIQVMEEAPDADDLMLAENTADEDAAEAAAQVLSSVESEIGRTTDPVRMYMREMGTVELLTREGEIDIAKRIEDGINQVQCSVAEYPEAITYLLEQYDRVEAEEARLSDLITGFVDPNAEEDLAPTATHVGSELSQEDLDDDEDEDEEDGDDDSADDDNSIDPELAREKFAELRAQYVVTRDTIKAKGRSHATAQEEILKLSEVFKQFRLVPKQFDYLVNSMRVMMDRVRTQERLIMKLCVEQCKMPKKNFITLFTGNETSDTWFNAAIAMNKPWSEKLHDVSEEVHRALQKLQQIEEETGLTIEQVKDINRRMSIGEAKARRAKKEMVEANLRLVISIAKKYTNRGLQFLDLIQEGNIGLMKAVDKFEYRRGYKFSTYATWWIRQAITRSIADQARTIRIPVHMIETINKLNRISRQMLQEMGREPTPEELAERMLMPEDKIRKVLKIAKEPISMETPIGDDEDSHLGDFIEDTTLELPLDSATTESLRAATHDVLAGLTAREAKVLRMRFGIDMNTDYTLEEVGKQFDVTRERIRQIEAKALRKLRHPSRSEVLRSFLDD
compound,measurement,setting,value
"CCCCCC1=CC(=O)C(C(=O)CCc2ccccc2)C(=O)O1 (stereo not drawn) [Compound 1, 4-hydroxy-6-pentyl-3-(3-phenylpropanoyl)-2-pyrone]",pIC50,[1],4.43
same,MIC,[2],9 µg/mL
same,MIC,[3],3 µg/mL
same,MIC,[4],7 µg/mL
same,MIC,[5],3 µg/mL
same,MIC,[6],6 µg/mL
same,MIC,[7],9 µg/mL
same,MIC,[8],5 µg/mL
same,MIC,[9],8 µg/mL

# Reference: patent US8772332B2, “Arylpropionyl-alpha-pyrone antibacterial agents” (priority 2010, dated 2014)
